From patent US8987526B2, “Partially halogenated, hydroxylated fullerene and allergen adsorbent using the same” (Osaka University, priority 2010, dated 2015)

Molecular target: T1, cedar pollen allergen (Cry j1) (Cryptomeria japonica, UniProt P18632)
T1 sequence (P18632 22-374): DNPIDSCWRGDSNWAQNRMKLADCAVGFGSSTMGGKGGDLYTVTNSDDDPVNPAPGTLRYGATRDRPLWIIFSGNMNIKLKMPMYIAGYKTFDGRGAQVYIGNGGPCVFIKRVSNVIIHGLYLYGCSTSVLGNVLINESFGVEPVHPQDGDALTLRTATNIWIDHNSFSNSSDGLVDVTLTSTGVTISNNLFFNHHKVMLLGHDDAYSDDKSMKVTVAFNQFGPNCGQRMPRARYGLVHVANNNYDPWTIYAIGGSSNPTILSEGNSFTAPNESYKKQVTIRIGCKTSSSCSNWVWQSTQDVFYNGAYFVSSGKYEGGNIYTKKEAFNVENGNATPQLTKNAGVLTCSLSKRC
Assay: Function test of the sample to cedar pollen allergen (Cry j1): allergen adsorption, supernatant measured by sandwich ELISA
Assay type: binding
Experimental: A 1% (by weight/volume) sample solution was prepared from each of the compounds synthesized in Examples 1 to 5, an allergen (Cry j1) dissolved into a phosphate buffer solution was added into the sample solution so as to give 100 ng/mL of the concentration thereof, and then, they were mixed by using a vortex; thereafter, reaction was carried out with shaking the mixture at 4° C. The solution was recovered at the respective predetermined intervals ([…]); and a supernatant thereof after centrifugal separation was analyzed as to the allergen concentration (A) by using a sandwich ELISA method (Enzyme-Linked Immunosorbent Assay). […] Reduction rate (%)=(B−A)/B×100
Specific procedure of the sandwich ELISA method will now be described. Anti-Cry j1 antibody is immobilized in each well of a microplate; and after cleaning it, post coating thereof is conducted. After further cleaning, a sample solution or a standard allergen solution is added thereinto to carry out a primary reaction. After cleaning thereof, an anti-Cry j1 biotin-labeled antibody is added thereinto to carry out a secondary reaction. After further cleaning thereof, an enzyme reagent streptavidin HRP is added thereinto; and after cleaning thereof, an o-phenylenedimaine substrate is added thereinto to carry out a chromogenic reaction. After termination of the reaction by adding dilute sulfuric acid, absorbance at the wavelength of 490 nm is measured by using a microplate reader. From a calibration curve predetermined by using the standard allergen solution, allergen concentration in each sample solution is obtained.

[1] = 1% (w/v) sample solution, 100 ng/mL Cry j1, 4° C., at 5 minutes

Row | Substance | allergen reduction rate [1] [%] | allergen reduction rate (conditions similar to Test Example 1, after 60 minutes) [%]
1 | C60Cl15(OH)15.9H2O [Example 3] | 90 | 
2 | C60(OH)44.8H2O [reference compound] |  | 6.2
3 | C60Cl5 (OH)15.5H2O [Example 4] | 90 | 
